Holding throughout (format): functional
Experiment [1] deals with Mus musculus. The experiment can be described thus: Analgesic activity in Mus musculus Swiss albino (mouse) assessed as protection against acetic acid-induced writhing response at 20 mg/kg, po administered 30 min before acetic acid challenge measured at 0.5 hr after challenge. In general terms: In writhing tests, fewer writhes than in controls are read as antinociception.

Experiment [2] has as its system Mus musculus. Briefly: Analgesic activity in Mus musculus Swiss albino (mouse) assessed as protection against acetic acid-induced writhing response at 20 mg/kg, po administered 30 min before acetic acid challenge measured at 2 hr after challenge.
Experiment [3] relates to Mus musculus. The experiment can be described thus: Analgesic activity in Mus musculus Swiss albino (mouse) assessed as protection against acetic acid-induced writhing response at 20 mg/kg, po administered 30 min before acetic acid challenge measured at 1 hr after challenge.

Turning to `COc1cccc(-c2cc(-c3cc4ccccc4oc3=O)nc(N)n2)c1`, the Activity in experiment [1] was determined as 46.51%; in experiment [2], 49.3%; in experiment [3], 53.52%.

As to `Nc1nc(-c2ccc(Br)cc2)cc(-c2cc3ccccc3oc2=O)n1`, the Activity in experiment [1] amounted to 28.16%; in experiment [2] it was 26.59%; in experiment [3], 29.41%.

With `COc1ccccc1-c1cc(-c2cc3ccccc3oc2=O)nc(N)n1`, the values for the Activity in experiment [1], in experiment [2] and in experiment [3] were 35.44%, 33.79% and 35.58%, respectively.

In the case of `Nc1nc(-c2cccc(Br)c2)cc(-c2cc3ccccc3oc2=O)n1`, the Activity in experiment [1] is 25.94%; in experiment [2], 31.57%; in experiment [3] it was 33.52%.

On to `Nc1nc(-c2ccccc2Br)cc(-c2cc3ccccc3oc2=O)n1`, for which the Activity in experiment [1] was 23.41%; in experiment [2] it was 27.7%; in experiment [3] it was 30.58%.

For `Nc1nc(-c2ccc(Cl)cc2)cc(-c2cc3ccccc3oc2=O)n1`, the Activity in experiment [1] was found to be 9.49%; in experiment [2], 10.8%; in experiment [3], 12.35%.

In the case of `Nc1nc(-c2cccc(Cl)c2)cc(-c2cc3ccccc3oc2=O)n1`, the Activity worked out at 52.21% in experiment [1], 56.5% in experiment [2] and 60.58% in experiment [3].

Take `Nc1nc(-c2ccccc2Cl)cc(-c2cc3ccccc3oc2=O)n1`: the Activity in experiment [1] worked out at 8.22%; in experiment [2] it was 11.63%; in experiment [3], 12.05%.

Regarding `O=C([O-])Cc1ccccc1Nc1c(Cl)cccc1Cl.[Na+]` [DICLOFENAC SODIUM], the values for the Activity in experiment [1], in experiment [2] and in experiment [3] were 91.13%, 93.35% and 96.76%, respectively.

These data come from ChEMBL document CHEMBL3046531, “Analgesic study of novel pyrimidine derivatives linked with coumarin moiety” (2012).
